Measured values published in patent publication US20150218212A1, “FLUORINATED EPOXYKETONE-BASED TETRAPEPTIDE COMPOUNDS AND USES THEREOF AS PROTEASOME INHIBITORS” (FLUORINOV PHARMA INC., priority 2012, published 2015).

Biological target: T1, chymotrypsin-like (CT-L) proteasome activity (Homo sapiens, UniProt P20618+P28074)
T1 sequence (P28074 60-263): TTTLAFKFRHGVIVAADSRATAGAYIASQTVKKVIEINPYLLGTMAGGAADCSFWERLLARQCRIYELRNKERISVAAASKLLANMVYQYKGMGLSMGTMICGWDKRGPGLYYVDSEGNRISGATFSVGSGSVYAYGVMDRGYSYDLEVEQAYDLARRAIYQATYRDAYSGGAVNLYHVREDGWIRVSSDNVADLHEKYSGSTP
T1 sequence (P20618 29-241): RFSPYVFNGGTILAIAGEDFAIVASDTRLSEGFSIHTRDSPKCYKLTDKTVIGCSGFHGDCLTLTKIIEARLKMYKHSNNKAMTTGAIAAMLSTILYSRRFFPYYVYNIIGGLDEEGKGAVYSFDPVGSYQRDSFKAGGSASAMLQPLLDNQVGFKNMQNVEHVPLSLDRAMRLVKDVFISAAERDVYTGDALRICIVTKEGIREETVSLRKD
Experiment: Proteasome enzymatic activity (tumor cell lysates), CT-L, OCI-AML-2
Assay type: biochemical
Conditions: OCI-AML-2, mean ± standard deviation
Protocol: Human multiple myeloma cell lines 8226, H929, JJN3, KMH11, KMS11, KMS18, LP1, MM1S, OPM2 and U266 were grown in Iscove modified Dulbecco's medium (IMDM). Human leukemia cell lines K562, OCI-AML2 and U937 were cultured in RPMI-1640 medium. Primary peripheral blood mononuclear cells were isolated from multiple myeloma patients by Ficoll density gradient centrifugation and bone marrow aspirates were obtained from multiple myeloma patients at the Princess Margaret Cancer Centre of the University Health Network (UHN; Toronto, ON, Canada). Primary cells were cultured in IMDM. The collection and use of human tissue for this study was approved by the UHN institutional ethics review board. All cell culture media were obtained from the Ontario Cancer Institute Tissue Culture Media Facility (Toronto, ON, Canada) and were supplemented with 10% fetal calf serum, […] (Hyclone, Logan, Utah). All cells were grown in a humidified incubator at 37° C. with 5% CO2.
Cells were harvested by centrifugation at 1,200 rpm at room temperature. Cell pellets were washed with PBS (phosphate buffered saline) and lysed with assay lysis buffer (50 mM HEPES (N-2-hydroxyethylpiperazine-N′-2-ethanesulfonic acid), pH 7.5; 150 mM NaCl; 1% Triton X-100; 2 mM ATP). Cell lysates were incubated on ice for 30 minutes, mixed by vortex every 5 minutes, and then centrifuged at 12,000 g for 10 minutes. The supernatant was transferred to a 96-well plate. For each assay, 10 μg of total protein were incubated for 1 hour at 37° C. with increasing concentrations (1 nM to 10 μM) of test compound diluted in assay buffer (50 mM tris-HCl (tris(hydroxymethyl)aminomethane-HCl), pH 7.5; 150 mM NaCl). DMSO alone was used as a control in every assay plate. After incubation, a specific fluorogenic proteasome substrate was added to each assay reaction at a final concentration of 40 μM in a total volume of 100 μL. N-Succinyl-Leu-Leu-Val-Tyr-7-amino-4-methylcoumarin (Suc-Leu-Leu-Val-Tyr-AMC) was used for measuring chymotrypsin-like (CT-L) activity, t-butoxycarbonyl-Leu-Arg-Arg-7-amino-4-methylcoumarin (Boc-Leu-Arg-Arg-AMC) for trypsin-like (T-L) activity, and benzyloxycarbonyl-L-leucyl-L-leucyl-L-glutamyl-7-amino-4-methylcoumarin (Z-Leu-Leu-Glu-AMC) for caspase-like (C-L) activity. The excitation wavelength was set at 360 nm and the fluorescence emission wavelength of AMC was detected at 460 nm. The fluorescence of free AMC released during the enzymatic reaction was measured with a SpectraMax M5 fluorescent spectrophotometric plate reader (Molecular Devices, Sunnyvale, Calif.). AMC release rate was measured at 37° C. in a kinetic mode, recording every 5 minutes for 30 minutes. Experiments were performed in triplicate and repeated at least twice.
Table 8 summarizes the data of representative compounds of Formula I for cell viability and CT-L proteasome activity with OCI-AML-2 and KMS-11 cell lines.

SMILES	IC50 [nM]
CC(C)C[C@H](NC(=O)[C@H](COC(F)F)NC(=O)CN1CCOCC1)C(=O)N[C@@H](COC(F)F)C(=O)N[C@@H](CC(C)C)C(=O)[C@@]1(C)CO1 [Example 1, (2S)—N-[(1S)-1-(difluoromethoxymethyl)-2-[[(1S)-3-methyl-1-[(2R)-2-methyloxirane-2-carbonyl]butyl]amino]-2-oxo-ethyl]-2-[[(2S)-3-(difluoromethoxy)-2-[(2-morpholinoacetyl)amino]propanoyl]amino]-4-methyl-pentanamide]	39 ± 1.24
CC(C)C[C@H](NC(=O)[C@H](COC(F)F)NC(=O)CN1CCOCC1)C(=O)N[C@@H](Cc1ccccc1)C(=O)N[C@@H](CC(C)C)C(=O)[C@@]1(C)CO1 [Example 2, (2S)-N-[(1S)-1-benzyl-2-[[(1S)-3-methyl-1-[(2R)-2-methyloxirane-2-carbonyl]butyl]-amino]-2-oxo-ethyl]-2-[[(2S)-3-(difluoromethoxy)-2-[(2-morpholinoacetyl)amino]propanoyl]amino]-4-methyl-pentanamide]	41.2 ± 3.19
CC(C)C[C@H](NC(=O)[C@H](COC(F)F)NC(=O)CN1CCOCC1)C(=O)N[C@@H](Cc1ccccc1)C(=O)N[C@@H](Cc1ccccc1)C(=O)[C@@]1(C)CO1 [Example 3, (2S)-N-[(1S)-1-benzyl-2-[[(1S)-1-benzyl-2-[(2R)-2-methyloxiran-2-yl]-2-oxo-ethyl]amino]-2-oxo-ethyl]-2-[[(2S)-3-(difluoromethoxy)-2-[(2-morpholinoacetyl)-amino]propanoyl]amino]-4-methyl-pentan-amide]	30 ± 2.44
CC(C)C[C@H](NC(=O)[C@H](COC(F)F)NC(=O)CN1CCOCC1)C(=O)N[C@@H](COC(F)F)C(=O)N[C@@H](Cc1ccccc1)C(=O)[C@@]1(C)CO1 [Example 4, (2S)-N-[(1S)-2-[[(1S)-1-benzyl-2-[(2R)-2-methyloxiran-2-yl]-2-oxo-ethyl]amino]-1-(difluoromethoxymethyl)-2-oxo-ethyl]-2-[[(2S)-3-(difluoromethoxy)-2-[(2-mor-pholinoacetyl)amino]propanoyl]amino]-4 methyl-pentanamide]	20.9 ± 0.91
CC(C)C[C@H](NC(=O)[C@H](COC(F)F)NC(=O)[C@H](COC(F)F)NC(=O)[C@H](CCc1ccccc1)NC(=O)CN1CCOCC1)C(=O)[C@@]1(C)CO1 [Example 7, (2S)-N-[(1S)-1-(difluoromethoxymethyl)-2-[[(1S)-1-(difluoromethoxymethyl)-2-[[(1S)-3-methyl-1-[(2R)-2-methyloxirane-2-carbo-nyl]butyl]amino]-2-oxo-ethyl]amino]-2-oxo-ethyl]-2-[(2-morpholinoacetyl)amino]-4-phenyl-butanamide]	24.7 ± 9.6
CC(C)C[C@H](NC(=O)[C@H](Cc1ccccc1)NC(=O)[C@H](COC(F)F)NC(=O)[C@H](COC(F)F)NC(=O)CN1CCOCC1)C(=O)[C@@]1(C)CO1 [Example 11, (2S)-2-[[(2S)-3-(difluoromethoxy)-2-[[(2S)-3-(difluoromethoxy)-2-[(2-morpholinoacetyl)-amino]propanoyl]amino]propanoyl]amino]-N-[(1S)-3-methyl-1-[(2R)-2-methyloxirane-2-carbonyl]butyl]-3-phenyl-propanamide]	30.5 ± 3.9
CC(C)C[C@H](NC(=O)[C@H](COC(F)F)NC(=O)[C@H](COC(F)F)NC(=O)[C@H](COC(F)F)NC(=O)CN1CCOCC1)C(=O)[C@@]1(C)CO1 [Example 17, (2S)-3-(difluoromethoxy)-N-[(1S)-1-(difluoromethoxymethyl)-2-[[(1S)-1-(difluoro-methoxymethyl)-2-[[(1S)-3-methyl-1-[(2R)-2-methyloxirane-2-carbonyl]butyl]amino]-2-oxo-ethyl]amino]-2-oxo-ethyl]-2-[(2-mor-pholinoacetyl)amino]-propanamide]	58.3 ± 3.11
